Drawing on the NIST ThermoML archive (doi:10.1007/s10765-008-0511-0), this text covers Triple point temperature for three compounds.

Numbers after ± are expanded uncertainties.

For the data set the following is noted: Crystal; Heating/Cooling curves.
`FC(F)F` [trifluoromethane]: the Triple point temperature came to 118.02 ± 1 K.
In the case of `[N-]=[N+]=O` [nitrous oxide], the Triple point temperature is on record as 181.99 ± 1 K.
Regarding `O=C=O` [carbon dioxide], the Triple point temperature is 216.52 ± 1 K.
